Laboratory results taken from patent US4746349A, “Method and compositions for suppressing the nitrification of ammonium in plant growth medium” (American Cyanamid Company, priority 1986, dated 1988).
Several values for one entry are separate records, joined by “and”; a condition that tells them apart may be missing. Equal values may be shown once.

Legend:
Nitrosomonas spp. = assay: Nitrification of ammonium in soil incubated at 25° C. (ammonium recovery, nitrate accumulation); settings: soil 25° C.; for Nitrification (percent nitrified) / Concentration of nitrate nitrogen / Recovery of Ammonium Nitrogen: 0.50 ppm; for Concentration of nitrate nitrogen / Recovery of Ammonium Nitrogen: 200 ppm N
Protocol: In these evaluations, one hundred grams (100 g) of oven dry, silt loam field soil with low residual nitrogen is added to a 6×12 cm screw-capped glass jar for each sampling date to provide an optimum environment for nitrification.
Two replicates of each treatment-sampling date are established. The soil is adjusted to 50% water saturation with an aqueous solution of ammonium sulfate at 200 ppm N and the chemical to be tested as a nitrification inhibitor at rates of from 0.10 to 0.50 ppm.
Incubation is at either 25° C. or 38° C. for 0, 1, 2, 4, 7, 9, 12, 16 or 20 weeks. Inorganic N is extracted by adding 2M KCl (10:1 v/w) and shaking for one hour, allowing settling for fifteen minutes. A 10 ml aliquot from the supernatant is assayed for ammonium, nitrite and nitrate by standard steam distillation methods (AOAC, pp. 653-655). Nitrapyrin (0.5 ppm) is used as a nitrification inhibitor for comparison. Benzyl alcohol, acetone, and a non-N amended soil are run as controls and as a check on mineralization.
Nitrification: Ammonium recovery and nitrate accumulation are indicative of nitrification, and data obtained with test compounds are reported in Tables I and II.

Nitrobacter spp. = assay: Nitrite nitrogen in ammonium amended soil incubated at 25° C.; settings: 0.50 ppm, soil 25° C., 200 ppm N
Protocol: Determination of nitrite nitrogen and nitrate nitrogen in soil prepared in Example 1 above, which is amended with 200 ppm of nitrogen as aqueous ammonium sulfate, […], is determined using the nitrite and nitrate analysis of the American Organization of Analytical Chemists (AOAC pp. 653-655).

Nitrosomonos = assay: Nitrification of ammonium amended field soil incubated at 38° C. (ammonium recovery, nitrate); settings: 0.50 ppm, soil 38° C., 200 ppm N
Protocol: (§1) Determination of Nitrification Inhibition of Soil amended with 200 ppm of nitrogen as ammonium sulfate and 0.5 ppm of Nitrapyrin or 0.5 ppm of Maduramicin, monoammonium salt.
(§2) Soil samples prepared as described in Example 1 above are incubated at 38° C. for 20 weeks. Samples are taken at intervals during the 20 week period, extracted with 2M KCl (10:1 v/w), and assayed for ammonium nitrite and nitrate by standard steam distillation methods.

Nitrabacter = assay: Nitrite in ammonium amended field soil incubated at 38° C.; settings: 0.50 ppm, soil 38° C., 200 ppm N
Protocol: as §1, §2

[1] = tested on: corn (Dekalb T2000, B73×LH 38); assay: Field evaluation: corn ear leaf tissue nitrogen, silt loam plots; format: in vivo; settings: for Corn Leaf Tissue Analysis (total N): inhibitor 0.56 kg/ha, ear leaf at silking
Description: (§3) Field Evaluation: Field evaluations are based on the N content of corn leaf tissue and grain yield utilizing two soil types. Replicate (4X) field plots are established at two different locations, one having (I) silt loam soil and one (II) with sandy loam soil. These soils had been previously cropped to non-fertilized corn to reduce the level of residual N. Maduramicin monoammonium salt is applied (0.25, 0.125, 0.07 ppm) with NH3 (84 or 168 kg N/ha) through a "downstream" by an injection system into silt loam plots. Nitrapyrin (0.25 ppm=0.56 kg a.i./ha), nitrogen checks, benzyl alcohol (1.16L/ha) (BA) and a O nitrogen check are included for comparison. Individual replicate plot sizes are 3.04M×22.8M (4, 76-cm corn rows×22.8M long) Anhydrous ammonia are injected on 76-cm centers.
(§4) Urea, treated or non-treated with Maduramicin monoammonium salt is broadcast on the surface of sandy loam plots. Plots are then planted with corn the day following treatment. Dekalb T2000 is planted 10 May on silt loam plots and Pioneer 3352 is planted 11 May in sandy loam plots.
(§5) Corn ear leaf tissues collected at silking on silt loam plots or 60 days post silking (on silt loam and sandy loam plots) are collected from each plot and assayed for total N (AOAC procedures). Grain yields are determined by harvesting the two center rows×15.2 m of each plot.

[2] = tested on: corn (Dekalb T2000, B73×LH 38); assay: Field evaluation: yield of corn, silt loam location; format: in vivo; settings: chemical 0.56 kg/ha
Description: as §3, §4, §5

corn (Pioneer 3352) = assay: Field evaluation: yield of corn, sandy loam plots; format: in vivo; settings: sandy loam, chemical 0.56 kg/ha
Description: as §3
Plots are then planted with corn the day following treatment. Dekalb T2000 is planted 10 May on silt loam plots and Pioneer 3352 is planted 11 May in sandy loam plots.
as §5

Urease = Urease activity of urea amended soil, 38° C., 24 hrs; format: biochemical
Protocol: Urease activity: Five grams (5 g) oven-dry soil is treated with 5 ml of aqueous urea solution (1000 ug/g soil), with or without the test compound, and incubated in 65 ml screw-capped glass bottles at 38° C. for 24 hrs. Three replicates of each treatment are established. Phenylphosphorodiamide (PPD) is used as a urease inhibitor for comparison with Maduramicin monoammonium salt. Urea remaining is determined after extracting the soil for 60 minutes (with shaking) with 50 ml of 2M KCl containing 0.5 ug/ml of phenylmercuric acetate and filtering the soil suspension. Urea in the extract is determined colorimetrically (Douglas & Bremner, 1970). The percentage inhibition is calculated from (A-B)/(C-B) X 100-% inhibition; where A=the amount of urea found after incubation with the compound, B=the amount of urea found in the non-treated soil, and C=the amount of urea added.

Clc1cccc(C(Cl)(Cl)Cl)n1 [Nitrapyrin]
Nitrification (percent nitrified) (Nitrosomonas spp.; by the 16th week): 65%
Nitrification (percent nitrified) (Nitrosomonas spp.; by the 20th week): 87%
Time through which nitrification is delayed or inhibited (Nitrosomonas spp.; 0.5 ppm): 12 weeks
Concentration of nitrate nitrogen (Nitrosomonas spp.; week 0): 18 PPM
Recovery of Ammonium Nitrogen (Nitrosomonas spp.; week 0): 193 PPM
Concentration of nitrate nitrogen (Nitrosomonas spp.; week 1): 11 PPM
Recovery of Ammonium Nitrogen (Nitrosomonas spp.; week 1): 155 PPM
Concentration of nitrate nitrogen (Nitrosomonas spp.; week 2): 23 PPM
Recovery of Ammonium Nitrogen (Nitrosomonas spp.; week 2): 177 PPM
Concentration of nitrate nitrogen (Nitrosomonas spp.; week 4): 21 PPM
Recovery of Ammonium Nitrogen (Nitrosomonas spp.; week 4): 185 PPM
Concentration of nitrate nitrogen (Nitrosomonas spp.; week 7): 25 PPM
Recovery of Ammonium Nitrogen (Nitrosomonas spp.; week 7): 188 PPM
Concentration of nitrate nitrogen (Nitrosomonas spp.; week 9): 39 PPM
Recovery of Ammonium Nitrogen (Nitrosomonas spp.; week 9): 174 PPM
Concentration of nitrate nitrogen (Nitrosomonas spp.; week 12): 49 PPM
Recovery of Ammonium Nitrogen (Nitrosomonas spp.; week 12): 184 PPM
Concentration of nitrate nitrogen (Nitrosomonas spp.; week 16): 148 PPM
Recovery of Ammonium Nitrogen (Nitrosomonas spp.; week 16): 70 PPM
Concentration of nitrate nitrogen (Nitrosomonas spp.; week 20): 163 PPM
Recovery of Ammonium Nitrogen (Nitrosomonas spp.; week 20): 25 PPM
Concentration of nitrite nitrogen (Nitrobacter spp.; week 0): 6 ppm
Concentration of nitrite nitrogen (Nitrobacter spp.; week 1): 6 ppm
Concentration of nitrite nitrogen (Nitrobacter spp.; week 2): 3 ppm
Concentration of nitrite nitrogen (Nitrobacter spp.; week 4): 5 ppm
Concentration of nitrite nitrogen (Nitrobacter spp.; week 7): -1 ppm
Concentration of nitrite nitrogen (Nitrobacter spp.; week 9): 8 ppm
Concentration of nitrite nitrogen (Nitrobacter spp.; week 12): -10 ppm
Concentration of nitrite nitrogen (Nitrobacter spp.; week 16): 15 ppm
Concentration of nitrite nitrogen (Nitrobacter spp.; week 20): 34 ppm
Ammonium Recovery, reported as nitrogen (Nitrosomonos; week 0): 194 ppm
Nitrate, reported as nitrogen (Nitrosomonos; week 0): 20 ppm
Ammonium Recovery, reported as nitrogen (Nitrosomonos; week 1): 188 ppm
Nitrate, reported as nitrogen (Nitrosomonos; week 1): 18 ppm
Ammonium Recovery, reported as nitrogen (Nitrosomonos; week 2): 195 ppm
Nitrate, reported as nitrogen (Nitrosomonos; week 2): 15 ppm
Ammonium Recovery, reported as nitrogen (Nitrosomonos; week 4): 200 ppm
Nitrate, reported as nitrogen (Nitrosomonos; week 4): 22 ppm
Ammonium Recovery, reported as nitrogen (Nitrosomonos; week 7): 179 ppm
Nitrate, reported as nitrogen (Nitrosomonos; week 7): 48 ppm
Ammonium Recovery, reported as nitrogen (Nitrosomonos; week 9): 141 ppm
Nitrate, reported as nitrogen (Nitrosomonos; week 9): 79 ppm
Ammonium Recovery, reported as nitrogen (Nitrosomonos; week 12): 125 ppm
Nitrate, reported as nitrogen (Nitrosomonos; week 12): 114 ppm
Ammonium Recovery, reported as nitrogen (Nitrosomonos; week 16): 127 ppm
Nitrate, reported as nitrogen (Nitrosomonos; week 16): 126 ppm
Ammonium Recovery, reported as nitrogen (Nitrosomonos; week 20): 91 ppm
Nitrate, reported as nitrogen (Nitrosomonos; week 20): 128 ppm
Nitrite, reported as nitrogen (Nitrabacter; week 0): 6 ppm
Nitrite, reported as nitrogen (Nitrabacter; week 1): 3 ppm
Nitrite, reported as nitrogen (Nitrabacter; week 2): 12 ppm
Nitrite, reported as nitrogen (Nitrabacter; week 4): 9 ppm
Nitrite, reported as nitrogen (Nitrabacter; week 7): -27 ppm
Nitrite, reported as nitrogen (Nitrabacter; week 9): 14 ppm
Nitrite, reported as nitrogen (Nitrabacter; week 12): 14 ppm
Nitrite, reported as nitrogen (Nitrabacter; week 16): 7 ppm
Nitrite, reported as nitrogen (Nitrabacter; week 20): 27 ppm
Corn Leaf Tissue Analysis (total N) ([1]; NH3 84 kg N/ha): 232 10^2 ug/g
Corn Leaf Tissue Analysis (total N) ([1]; NH3 168 kg N/ha): 291 10^2 ug/g
More nitrogen in leaf tissue than control plots with similar nitrogen ([1]; silt loam plots): 15-25%
AVERAGE YIELD 4-REPLICATES ([2]; N 84 kg/ha): 133.4 HECTOLITERS/HECTARE
AVERAGE YIELD 4-REPLICATES ([2]; N 168 kg/ha): 148.8 HECTOLITERS/HECTARE
AVERAGE YIELD 4-REPLICATES (corn (Pioneer 3352); N 84 kg/ha as NH3): 160.1 HECTOLITERS/HECTARE
AVERAGE YIELD 4-REPLICATES (corn (Pioneer 3352); N 168 kg/ha as NH3): 167.0 HECTOLITERS/HECTARE

NP(N)(=O)Oc1ccccc1 [PPD, Phenylphosphorodiamide]
% INHIBITION (urease) (Urease; (A-B)/(C-B) X 100, urea 1000 ug/g soil): 63%
AVERAGE amount of urea remaining (Urease; average of 3 replicates, urea 1000 ug/g soil): 769 µg/g
AMOUNT REMAINING (urea) (Urease; single replicates, urea 1000 ug/g soil): 755 µg/g and 767 µg/g and 770 µg/g
